Test results from patent US9453023B2, “Substituted phenyl cycloalkyl pyrrolidine (piperidine) spirolactams and amides, preparation and therapeutic use thereof” (SANOFI, priority 2010, dated 2016).
Counter-ions that a name gives are not always drawn.

target: rhesus (Macacca Mulatta) H3 receptor (Macaca mulatta, UniProt Q865E1); assay: Rhesus H3 radioligand binding assay ([3H]-Methylhistamine, WGA SPA); design: species or system rhesus monkey (Macacca Mulatta); settings: displacement of [3H]-Methylhistamine (2 nM) from rhesus H3 receptor membranes; Cheng-Prusoff
Sequence (Q865E1 1-445): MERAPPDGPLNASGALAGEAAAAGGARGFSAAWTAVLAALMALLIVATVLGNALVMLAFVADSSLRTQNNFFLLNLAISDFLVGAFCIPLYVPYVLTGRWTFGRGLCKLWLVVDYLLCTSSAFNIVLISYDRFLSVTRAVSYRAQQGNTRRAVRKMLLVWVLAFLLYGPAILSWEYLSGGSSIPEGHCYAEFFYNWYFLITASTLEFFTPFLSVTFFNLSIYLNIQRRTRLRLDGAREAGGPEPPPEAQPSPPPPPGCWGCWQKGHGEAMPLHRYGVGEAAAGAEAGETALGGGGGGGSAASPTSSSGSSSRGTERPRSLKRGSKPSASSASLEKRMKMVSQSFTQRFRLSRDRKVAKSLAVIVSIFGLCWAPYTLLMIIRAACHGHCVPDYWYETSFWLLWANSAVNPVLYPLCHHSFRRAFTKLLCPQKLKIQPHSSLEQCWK
Description: (Genbank #AY231164). Stably transfected cultures were amplified in tissue culture flasks by standard tissue culture methods and induced to express rhesus H3 by exposure to 500 ng/ml tetracycline (Cellgro) for 24 hours. After induction, cells were dissociated from flasks utilizing Cell Stripper (Cellgro). Cells were centrifuged (1K×g, 5 min) and pellet frozen in an ethanol-dry ice bath to disrupt cell membranes. Frozen cell pellet was re-suspended in 5 mM HEPES (pH 7.4, Invitrogen) at 10 ml/1000 cm2 of harvested cells. The cell suspension was drawn through an 18 gauge needle (2-3×) followed by a 23 gauge needle (2-3×) to further disrupt cell membranes. The cell suspension was centrifuged (40K×g, 30 min). Cell membrane pellet was re-suspended in 5 mM HEPES (pH 7.4, Invitrogen) at a final protein concentration of 10 mg/ml. Rhesus H3 membranes were stored under liquid nitrogen prior to use in [3H]-Methylhistamine and GTPγS radioligand binding assays.
Rhesus H3 radioligand binding assay was performed using rhesus H3 receptor membranes (prepared as described above), [3H]-Methylhistamine (Perkin Elmer) and WGA SPA beads (wheat germ agglutinin scintillation proximity assay) beads (Amersham). The assay was performed in 96-well Opti-Plates (Packard). Each reaction contained 50 μl rhesus H3 membranes (20-30 μg total protein), 50 μl WGA SPA beads (0.1 μg) and 50 μl of 83 Ci/mmol [^3H]-Methylhistamine (final concentration 2 nM) and 50 μl of tested compound. The compounds of this invention and/or vehicle were diluted with binding buffer from 10 mM DMSO stocks. Assay plates were sealed with TopSeal (Perkin Elmer) and mixed on shaker (25° C., 1 hour). Assay plates were read on TopCount scintillation counter (Packard). Results were analyzed by Hill transformation and Ki values were determined by Cheng-Prusoff equation.

Row | Structure (SMILES) | Ki [nM]
1 | C[C@H]1CCCN1[C@H]1CC[C@H](c2ccc(N3CCC4(CCNCC4)C3=O)c(F)c2)CC1 [Example 17, 2-{2-Fluoro-4-[4-((S)-2-methyl-pyrrolidin-1-yl)-cyclohexyl]-phenyl}-2,8-diaza-spiro[4.5]decan-1-one hydrochloride] | 84.3
2 | C[C@H]1CCCN1C1CC[C@H](c2ccc(NC(=O)Cc3ccccc3)cc2)C1 (stereo partly drawn) [Example 37, N-{4-[(S)-3-((S)-2-Methyl-pyrrolidin-1-yl)-cyclopentyl]-phenyl}-2-phenyl-acetamide] | 71.4
3 | Cc1ccc(C(=O)Nc2ccc([C@H]3CCC(N4CCC[C@@H]4C)C3)cc2)cc1 (stereo partly drawn) [Example 34, 4-Methyl-N-{4-[(S)-3-((S)-2-methyl-pyrrolidin-1-yl)-cyclopentyl]-phenyl}-benzamide] | 98.7
4 | O=C1N(c2ccc([C@H]3CC[C@H](N4CCC4)CC3)cc2F)CCC12CCNCC2 [Example 19, 2-[4-(4-Azetidin-1-yl-cyclohexyl)-2-fluoro-phenyl]-2,8-diaza-spiro[4.5]decan-1-one hydrochloride] | 82.2
5 | C[C@H]1CCCCN1[C@H]1CC[C@H](c2ccc(N3CCC4(CCOCC4)C3=O)cc2)CC1 [Example 11, 2-{4-[4-((S)-2-Methyl-piperidin-1-yl)-cyclohexyl]-phenyl}-8-oxa-2-aza-spiro[4.5]decan-1-one] | 39.4
6 | CC(C)(C)OC(=O)N1CCC2(CC1)CCN(c1ccc([C@H]3CC[C@H](N4CCC4)CC3)cc1F)C2=O [Example 15, 2-[4-(4-Azetidin-1-yl-cyclohexyl)-2-fluoro-phenyl]-1-oxo-2,8-diaza-spiro[4.5]decane-8-carboxylic acid tert-butyl ester] | 220
7 | C[C@H]1CCCN1C1CC[C@H](c2ccc(NC(=O)c3ccccc3OC(F)(F)F)cc2)C1 (stereo partly drawn) [Example 35, N-{4-[(S)-3-((S)-2-Methyl-pyrrolidin-1-yl)-cyclopentyl]-phenyl}-2-trifluoromethoxy-benzamide] | 136
8 | CC1CCCN1C1CC[C@H](c2ccc(NC(=O)OCc3ccccc3)cc2)C1 (stereo partly drawn) [Intermediate (10), {4-[(S)-3-(2-Methyl-pyrrolidin-1-yl)-cyclopentyl]-phenyl}-carbamic acid benzyl ester] | 65.4
9 | O=C1N(c2ccc([C@H]3CC[C@H](N4CCCC4)CC3)cc2F)CCC12CCNCC2 [Example 20, 2-[2-Fluoro-4-(4-pyrrolidin-1-yl-cyclohexyl)-phenyl]-2,8-diaza-spiro[4.5]decan-1-one hydrochloride] | 137
10 | CC(C)(C)OC(=O)N1CCC2(CC1)CCN(c1ccc([C@H]3CC[C@H](N4CCCC4)CC3)cc1F)C2=O [Example 13, 2-[2-Fluoro-4-(4-pyrrolidin-1-yl-cyclohexyl)-phenyl]-1-oxo-2,8-diaza-spiro[4.5]decane-8-carboxylic acid tert-butyl ester] | 379
11 | C[C@H]1CCCN1C1CC[C@H](c2ccc(NC(=O)OCc3ccccc3)cc2)C1 (mixture of isomers) [Intermediate (13), {4-[(S)-3-((S)-2-Methyl-pyrrolidin-1-yl)-cyclopentyl]-phenyl}-carbamic acid benzyl ester] | 37.4
12 | C[C@H]1CCCN1C1CC[C@H](c2ccc(NC(=O)c3ccc(OC(F)(F)F)cc3)cc2)C1 (stereo partly drawn) [Example 36, N-{4-[(S)-3-((S)-2-Methyl-pyrrolidin-1-yl)-cyclopentyl]-phenyl}-4-trifluoromethoxy-benzamide] | 48.5
13 | CC(=O)N1CCC(C(=O)Nc2ccc([C@H]3CCC(N4CCC[C@@H]4C)C3)cc2)CC1 (stereo partly drawn) [Example 22, 1-Acetyl-piperidine-4-carboxylic acid {4-[(S)-3-((S)-2-methyl-pyrrolidin-1-yl)-cyclopentyl]-phenyl}-amide] | 118
14 | C[C@H]1CCCN1C1CC[C@H](c2ccc(NC(=O)c3ccc(Cl)cc3)cc2)C1 (stereo partly drawn) [Example 32, 4-Chloro-N-{4-[(S)-3-((S)-2-methyl-pyrrolidin-1-yl)-cyclopentyl]-phenyl}-benzamide] | 65.5
15 | C[C@H]1CCCN1C1CC[C@H](c2ccc(NC(=O)c3cccs3)cc2)C1 (stereo partly drawn) [Example 23, Thiophene-2-carboxylic acid {4-[(S)-3-((S)-2-methyl-pyrrolidin-1-yl)-cyclopentyl]-phenyl}-amide] | 46.5
16 | O=C1N(c2ccc([C@H]3CC[C@H](N4CCCC4)CC3)cc2)CCC12CCOCC2 [Example 9, 2-[4-(4-Pyrrolidin-1-yl-cyclohexyl)-phenyl]-8-oxa-2-aza-spiro[4.5]decan-1-one] | 112
17 | Cc1ccc(F)cc1C(=O)Nc1ccc([C@H]2CCC(N3CCC[C@@H]3C)C2)cc1 (stereo partly drawn) [Example 25, 5-Fluoro-2-methyl-N-{4-[(S)-3-((S)-2-methyl-pyrrolidin-1-yl)-cyclopentyl]-phenyl}-benzamide] | 45.7

Molecules with a lower Ki, results first:

Row | Ki [nM] | Structure (SMILES)
18 | 6.01 | Cc1noc(C)c1C(=O)Nc1ccc([C@H]2CCC(N3CCC[C@@H]3C)C2)cc1 (stereo partly drawn) [Example 26, 3,5-Dimethyl-isoxazole-4-carboxylic acid {4-[(S)-3-((S)-2-methyl-pyrrolidin-1-yl)-cyclopentyl]-phenyl}-amide]
19 | 34 | C[C@H]1CCCN1C1CC[C@H](c2ccc(NS(=O)(=O)C3CC3)cc2)C1 (stereo partly drawn) [Example 27, Cyclopropanesulfonic acid {4-[(S)-3-((S)-2-methyl-pyrrolidin-1-yl)-cyclopentyl]-phenyl}-amide]
20 | 17.9 | CC1CCCN1C1CC[C@H](c2ccc(N3CCCC4(CCN(C(=O)OC(C)(C)C)CC4)C3=O)cc2)C1 (some centres unmarked) [Example 3, 2-{4-[3-(2-Methyl-pyrrolidin-1-yl)-cyclopentyl]-phenyl}-1-oxo-2,9-diaza-spiro[5.5]undecane-9-carboxylic acid tert-butyl ester]
21 | 35.3 | C[C@@H]1CCCN1[C@H]1CC[C@H](c2ccc(N3CCC4(CCOCC4)C3=O)cc2)CC1 [Example 10, 2-{4-[4-((R)-2-Methyl-pyrrolidin-1-yl)-cyclohexyl]-phenyl}-8-oxa-2-aza-spiro[4.5]decan-1-one]
22 | 27.5 | CC1CCCN1C1CC[C@H](c2ccc(N3CCCC4(CCCC4)C3=O)cc2)C1 (some centres unmarked) [Example 7, 7-{4-[3-(2-Methyl-pyrrolidin-1-yl)-cyclopentyl]-phenyl}-7-aza-spiro[4.5]decan-6-one]
23 | 33.7 | C[C@H]1CCCN1C1CC[C@H](c2ccc(NC(=O)C3CCOCC3)cc2)C1 (stereo partly drawn) [Example 28, Tetrahydro-pyran-4-carboxylic acid {4-[(S)-3-((S)-2-methyl-pyrrolidin-1-yl)-cyclopentyl]-phenyl}-amide]
24 | 6.07 | CC1CCCN1C1CC[C@H](c2ccc(N3CCCC4(CCNCC4)C3=O)cc2)C1 (some centres unmarked) [Example 8, 2-{4-[3-(2-Methyl-pyrrolidin-1-yl)-cyclopentyl]-phenyl}-2,9-diaza-spiro[5.5]undecan-1-one hydrochloride]
25 | 11.3 | C[C@@H]1CCCN1[C@H]1CC[C@H](c2ccc(N3CCC4(CCNCC4)C3=O)c(F)c2)CC1 [Example 18, 2-{2-Fluoro-4-[4-((R)-2-methyl-pyrrolidin-1-yl)-cyclohexyl]-phenyl}-2,8-diaza-spiro[4.5]decan-1-one hydrochloride]
26 | 34.9 | C[C@H]1CCCN1C1CC[C@H](c2ccc(NC(=O)c3ccc(F)cc3)cc2)C1 (stereo partly drawn) [Example 31, 4-Fluoro-N-{4-[(S)-3-((S)-2-methyl-pyrrolidin-1-yl)-cyclopentyl]-phenyl}-benzamide]
27 | 32.6 | Cc1ccccc1C(=O)Nc1ccc([C@H]2CCC(N3CCC[C@@H]3C)C2)cc1 (stereo partly drawn) [Example 33, 2-Methyl-N-{4-[(S)-3-((S)-2-methyl-pyrrolidin-1-yl)-cyclopentyl]-phenyl}-benzamide]
28 | 27.4 | C[C@H]1CCCN1C1CC[C@H](c2ccc(NS(=O)(=O)c3ccc(F)c(F)c3)cc2)C1 (stereo partly drawn) [Example 30, 3,4-Difluoro-N-{4-[(S)-3-((S)-2-methyl-pyrrolidin-1-yl)-cyclopentyl]-phenyl}-benzenesulfonamide]
29 | 6.1 | C[C@H]1CCCN1[C@H]1CC[C@H](c2ccc(N3CCC4(CCOCC4)C3=O)cc2)CC1 [Example 12, 2-{4-[4-((S)-2-Methyl-pyrrolidin-1-yl)-cyclohexyl]-phenyl}-8-oxa-2-aza-spiro[4.5]decan-1-one]
30 | 11.9 | C[C@H]1CCCN1C1CC[C@H](c2ccc(N3CCC4(CCOCC4)C3=O)cc2)C1 (stereo partly drawn) [Example 1, 2-{4-[(S)-3-((S)-2-Methyl-pyrrolidin-1-yl)-cyclopentyl]-phenyl}-8-oxa-2-aza-spiro[4.5]decan-1-one]
31 | 12.8 | C[C@H]1CCCN1C1CC[C@H](c2ccc(N3CCC4(CCCCC4)C3=O)cc2)C1 (stereo partly drawn) [Example 2, 2-{4-[(S)-3-((S)-2-Methyl-pyrrolidin-1-yl)-cyclopentyl]-phenyl}-2-aza-spiro[4.5]decan-1-one]
32 | 26.8 | CC1CCCN1C1CC[C@H](c2ccc(N3CCC4(CCN(C(=O)OC(C)(C)C)CC4)C3=O)cc2)C1 (some centres unmarked) [Example 6, 2-{4-[3-(2-Methyl-pyrrolidin-1-yl)-cyclopentyl]-phenyl}-1-oxo-2,8-diaza-spiro[4.5]decane-8-carboxylic acid tert-butyl ester]
